Experimental data as given in patent US12583870B2, “Azaheteroaryl compound and application thereof” (SHANGHAI BLUERAY BIOPHARMA CO., LTD., priority 2019, dated 2026).

Tests used:
KARPAS-422 cells = assay: Cell proliferation analysis, KARPAS-422, 13 days, CellTiter-Glo; assay type: cell-based; settings: Homo sapiens, 312 h
Description: Human B-cell non-Hodgkin lymphoma cells, KARPAS-422 S, were cultured in a culture flask using standard cell culture conditions. The medium contained 15% fetal bovine serum (FBS, Invitrogen, product number 10099-141) and 1% penicillin/streptomycin solution (P/S) RPMI-1640 (Invitrogen, product number 11875), and the culture flask was placed and cultured in a sterile incubator at the temperature of 37° C. and […] with a relative humidity of […] To detect the effect of PRC2 inhibitors on cell proliferation, cells in exponential growth phase were taken and seeded into a 96-well plate (Corning, product number 3904) at a density of 1×10^4 cells/well, and 100 μL of the medium was added into each well. Subsequently, the compounds at different concentrations disclosed in the present disclosure were added into the wells where cells had already been seeded (9 concentration gradients were provided for each compound, with the highest detection concentration at 10 μM, 3-fold gradient dilution) and two replicates in parallel were provided for each treatment concentration. DMSO was at a final concentration of 0.5%. Afterwards, viable cell numbers were determined using Vi-CELL (Beckman Coulter) every 3-4 days. Cells counted were seeded into a new 96-well plate at the same density (1×10^4 cells/well) each time. The wells were supplemented with a fresh medium to 100 μL and at the same time, compounds at different concentrations were added. The cells were cultured to day 13. 100 μL of CellTiter-Glo (CellTiter-GloCellTiter-GloCellTiter-GloCTG) (Promega, product number G7573) was added into each well. The plate was placed in the dark at room temperature for 10-20 minutes and the luminescence signal was read using SpectraMax i3× (Molecular Devices).

[1] = test system: trimethylation level of histone H3K27 in G401 cells; assay: ELISA (H3K27 trimethylation) analysis in G401 cells; assay type: cell-based; settings: Homo sapiens, G-401, 72 hours, H3K27me3 standardized to H3
Description: 3-fold series dilution with DMSO was carried out on the representative compounds of the present disclosure; and 10 concentration gradients were detected for each compound, with the highest detection concentration of 10 μM. The compounds were diluted 200-fold into the G401 cells cultured in a 96-well plate (DMSO at a final concentration of 0.5%). After the cells, administered with the compound, were cultured for 72 hours, the trimethylation level of the histone H3K27 was detected using the ELISA method.
Extraction of the histone: in a 96-well plate, the compound-treated cells were washed three times with 1×PBS (10×PBS buffer (80 g NaCl (Sigma, product number S3014), 2 g KCl (Sigma, product number 60128), 14.4 g Na2HPO4 (Sigma, product number S5136), and 2.4 g KH2PO4 (Sigma, product number P9791) in 1 L of water, adjusting the pH to 7.4)). 100 μL of 0.4 N HCl was added into each well. The plate was placed at 4° C. and gently agitated for 2 hours to lyse the cells. The cell lysate was then neutralized with 80 μL of neutralization buffer (0.5 M disodium hydrogen phosphate, pH 12.5, 2.5 mM DTT; 1% cocktail (Sigma, product number P8340)) (the cell lysate and the neutralization buffer were thoroughly mixed to uniformity).
ELISA detection method: the cell lysate was transferred in parallel to two 384-well detection plates (PerkinElmer, OptiPlate-384HB, product number 6007290), wherein one of the plates was used to detect the H3K27 trimethylation level and the other plate was used to determine the level of H3. PBS was used to adjust the final volume to 50 μL/well. The plates were coated at 4° C. overnight. On the following day, the solution inside the wells was discarded and the plates were washed 5 times with TBST buffer (1×TBS (10×TBS: 24.2 g Tris (Sigma, product number T6066), 80 g NaCl (Sigma, product number S3014) in 1 L of water, adjusting the pH with HCl to 7.6), 0.1% Tween-20) and dried on an absorbent paper by inversion. 70 μL of blocking buffer (TBST, 5% BSA) was added into the coated reaction wells and the plates were incubated at room temperature for 1 hour. The blocking buffer was discarded and primary antibodies were added (30 μL/well). The desired primary antibodies were all diluted with a blocking buffer and the dilution factor was as follows: anti-H3K27me3 antibody (Cell Signaling Technology, product number 9733), 1:2000 dilution; anti-H3 antibody (Cell Signaling Technology, product number 4499), 1:10000 dilution. After the primary antibodies were added, the plates were placed at room temperature and incubated for 1 hour. After the plates were washed with TBST 5 times, the plates were dried by inversion. A secondary antibody (30 μL/well) was added to each of the reaction wells and the plates were incubated at room temperature for 1 hour. The secondary antibody (anti-rabbit antibody (Jackson ImmunoResearch, product number 111-035-003)) was diluted 2000-fold with a blocking buffer before use. After 1 hour, the plates were washed with TBST and dried by inversion. 30 μL of ECL substrate (Pierce, product number 34080) was added into each well and centrifuged at 2000 rpm for 30 seconds. The signal of each sample was detected using SpectraMax (Molecular Devices). Data processing: H3K27 methylation readings were first standardlized using H3 signals and 0.5% DMSO-treated samples was used as the control to calculate the inhibition percentage of the compounds. Data were fit to obtain Dose-Response curves using the GraphPad prism 5 program and the IC50 values of the test compounds were obtained.

SMILES | IC50 (KARPAS-422 cells) [µM] | IC50 [1] [µM]
CN(C)C(=O)c1ccc(-c2cnc(NCc3c(F)ccc4c3CCO4)n3cnnc23)c2nccn12 [8-(5-(((5-fluoro-2,3-dihydrobenzofuran-4-yl)methyl)amino)-[1,2,4]triazolo[4,3-c]pyrimidin-8-yl)-N,N-dimethylimidazo[1,2-a]pyridine-5-carboxamide] | 0.0013 | 0.0007
Fc1ccc2c(c1CNc1ncc(-c3ccc(CN4CCOCC4)n4ncnc34)c3nncn13)CCO2 [N-((5-fluoro-2,3-dihydrobenzofuran-4-yl)methyl)-8-(5-(morpholinomethyl)-[1,2,4]triazolo[1,5-a]pyridin-8-yl)-[1,2,4]triazolo[4,3-c]pyrimidin-5-amine] | 0.0011 | 0.0011
Cc1ccc(-c2cnc(NCc3c(F)ccc4c3CCO4)n3cnnc23)c2ncc(C(=O)N(C)C)n12 [8-(5-(((5-fluoro-2,3-dihydrobenzofuran-4-yl)methyl)amino)-[1,2,4]triazolo[4,3-c]pyrimidin-8-yl)-N,N,5-trimethylimidazo[1,2-a]pyridine-3-carboxamide] | 0.0012 | 0.0014
Cc1c(F)cc(-c2cnc(NCc3c(F)ccc4c3CCO4)n3cnnc23)c2ncnn12 [N-((5-fluoro-2,3-dihydrobenzofuran-4-yl)methyl)-8-(6-fluoro-5-methyl-[1,2,4]triazolo[1,5-a]pyridin-8-yl)-[1,2,4]triazolo[4,3-c]pyrimidin-5-amine] | 0.0047 | 0.0036
CN(C)CCN(C)Cc1ccc(-c2cnc(NCc3c(F)ccc4c3CCO4)n3cnnc23)c2ncnn12 [N1-((8-(5-(((5-fluoro-2,3-dihydrobenzofuran-4-yl)methyl)amino)-[1,2,4]triazolo[4,3-c]pyrimidin-8-yl)-[1,2,4]triazolo[1,5-a]pyridin-5-yl)methyl)-N1,N2,N2-trimethylethane-1,2-diamine] | 0.0035 | 0.0112
Cc1ccc(-c2cnc(NCc3c(F)ccc4c3[C@H]3C[C@H]3O4)n3cnnc23)c2nccn12 [N-(((1aR,6bR)-5-fluoro-1a,6b-dihydro-1H-cyclopropa[b]benzofuran-6-yl)methyl)-8-(5-methylimidazo[1,2-a]pyridin-8-yl)-[1,2,4]triazolo[4,3-c]pyrimidin-5-amine] | 0.0009 | 0.0012
Fc1ccc2c(c1CNc1ncc(-c3cccc4nn[nH]c34)c3nncn13)CCO2 [8-(1H-benzo[d][1,2,3]triazol-7-yl)-N-((5-fluoro-2,3-dihydrobenzofuran-4-yl)methyl)-[1,2,4]triazolo[4,3-c]pyrimidin-5-amine] | 0.0012 | 0.0007
Cc1ccc(-c2cnc(NCc3c(F)ccc4c3CCO4)n3cnnc23)c2nc(C(=O)N(C)C)cn12 [8-(5-(((5-fluoro-2,3-dihydrobenzofuran-4-yl)methyl)amino)-[1,2,4]triazolo[4,3-c]pyrimidin-8-yl)-N,N,5-trimethylimidazo[1,2-a]pyridine-2-carboxamide] | 0.0028 | 0.0023
CC(C)(O)CNCc1ccc(-c2cnc(NCc3c(F)ccc4c3CCO4)n3cnnc23)c2ncnn12 [1-(((8-(5-(((5-fluoro-2,3-dihydrobenzofuran-4-yl)methyl)amino)-[1,2,4]triazolo[4,3-c]pyrimidin-8-yl)-[1,2,4]triazolo[1,5-a]pyridin-5-yl)methyl)amino)-2-methylpropan-2-ol] | 0.0021 | 0.0022
Fc1ccc2c(c1CNc1ncc(-c3cccn4ncnc34)c3nncn13)CCO2 [8-([1,2,4]triazolo[1,5-a]pyridin-8-yl)-N-((5-fluoro-2,3-dihydrobenzofuran-4-yl)methyl)-[1,2,4]triazolo[4,3-c]pyrimidin-5-amine] | 0.0014 | 0.0009
Fc1ccc2c(c1CNc1ncc(-c3ccc(Cn4ccnc4)n4ncnc34)c3nncn13)CCO2 [8-(5-((1H-imidazol-1-yl)methyl)-[1,2,4]triazolo[1,5-a]pyridin-8-yl)-N-((5-fluoro-2,3-dihydrobenzofuran-4-yl)methyl)-[1,2,4]triazolo[4,3-c]pyrimidin-5-amine] | 0.0009 | 0.0006
CN1CCN(Cc2ccc(-c3cnc(NCc4c(F)ccc5c4CCO5)n4cnnc34)c3ncnn23)CC1 [N-((5-fluoro-2,3-dihydrobenzofuran-4-yl)methyl)-8-(5-((4-methylpiperazin-1-yl)methyl)-[1,2,4]triazolo[1,5-a]pyridin-8-yl)-[1,2,4]triazolo[4,3-c]pyrimidin-5-amine] | 0.0007 | 0.0011
N#Cc1cnc2c(-c3cnc(NCc4c(F)ccc5c4CCO5)n4cnnc34)ccc(N3CCOCC3)n12 [8-(5-(((5-fluoro-2,3-dihydrobenzofuran-4-yl)methyl)amino)-[1,2,4]triazolo[4,3-c]pyrimidin-8-yl)-5-morpholinoimidazo[1,2-a]pyridine-3-carbonitrile] | 0.0013 | 0.0013
Fc1ccc2c(c1CNc1ncc(-c3ccc(C(F)(F)F)n4ncnc34)c3nncn13)CCO2 [N-((5-fluoro-2,3-dihydrobenzofuran-4-yl)methyl)-8-(5-(trifluoromethyl)-[1,2,4]triazolo[1,5-a]pyridin-8-yl)-[1,2,4]triazolo[4,3-c]pyrimidin-5-amine] | 0.036 | 0.0069
Cc1ccc(-c2cnc(NCc3c(F)ccc4c3CCO4)n3cnnc23)c2ncc(C#N)n12 [8-(5-(((5-fluoro-2,3-dihydrobenzofuran-4-yl)methyl)amino)-[1,2,4]triazolo[4,3-c]pyrimidin-8-yl)-5-methylimidazo[1,2-a]pyridine-3-carbonitrile] | 0.003 | 0.0052
CC(C)(O)c1ccc(-c2cnc(NCc3c(F)ccc4c3CCO4)n3cnnc23)c2ncnn12 [2-(8-(5-(((5-fluoro-2,3-dihydrobenzofuran-4-yl)methyl)amino)-[1,2,4]triazolo[4,3-c]pyrimidin-8-yl)-[1,2,4]triazolo[1,5-a]pyridin-5-yl)propan-2-ol] | 0.0002 | 0.0004
Cc1ccc(-c2cnc(NCc3c(F)ccc4c3CCO4)n3cnnc23)c2ncc(C(N)=O)n12 [8-(5-(((5-fluoro-2,3-dihydrobenzofuran-4-yl)methyl)amino)-[1,2,4]triazolo[4,3-c]pyrimidin-8-yl)-5-methylimidazo[1,2-a]pyridine-3-carboxamide] | 0.0022 | 0.0035
Fc1ccc2c(c1CNc1ncc(-c3cccc4scnc34)c3nncn13)CCO2 [8-(benzo[d]thiazol-4-yl)-N-((5-fluoro-2,3-dihydrobenzofuran-4-yl)methyl)-[1,2,4]triazolo[4,3-c]pyrimidin-5-amine] | 0.0036 | 0.0047
